Starred links: 1 amine or outer side, 2 acyl side, 3 side chain; linkers in the order of their positions; H or OH if unused. Non-standard residues stand in square brackets, D forms with d. Residues, ends and D or L forms follow the SMILES beside them. *: point of attachment. X3 = O=C(CNC(=S)[C@H](Cc1ccccc1)N[*:1])[*:2]; 1Nal = N[C@@H](Cc1cccc2ccccc12)C(=O)O; 2Nal = N[C@@H](Cc1ccc2ccccc2c1)C(=O)O; Arg(Me) = CNC(=N)NCCC[C@H](N)C(=O)O; Bta = N[C@@H](Cc1csc2ccccc12)C(=O)O; Fmoc = O=C(OCC1c2ccccc2-c2ccccc21)*; Cha = N[C@@H](CC1CCCCC1)C(=O)O; azaGly = NNC(=O)O
Target: T1, hOT7T175 (Homo sapiens, UniProt Q969F8, L364H)
T1 construct: expressed in transfected cells
Experiment: Intracellular Ca ion level-increasing activity using FLIPR (180 seconds; specific activity to Metastin (1-54))
Assay type: cell-based
Conditions: hOT7T175/CHO, relative to Metastin (1-54) = 1

T1 sequence (Q969F8 whole entry L364H): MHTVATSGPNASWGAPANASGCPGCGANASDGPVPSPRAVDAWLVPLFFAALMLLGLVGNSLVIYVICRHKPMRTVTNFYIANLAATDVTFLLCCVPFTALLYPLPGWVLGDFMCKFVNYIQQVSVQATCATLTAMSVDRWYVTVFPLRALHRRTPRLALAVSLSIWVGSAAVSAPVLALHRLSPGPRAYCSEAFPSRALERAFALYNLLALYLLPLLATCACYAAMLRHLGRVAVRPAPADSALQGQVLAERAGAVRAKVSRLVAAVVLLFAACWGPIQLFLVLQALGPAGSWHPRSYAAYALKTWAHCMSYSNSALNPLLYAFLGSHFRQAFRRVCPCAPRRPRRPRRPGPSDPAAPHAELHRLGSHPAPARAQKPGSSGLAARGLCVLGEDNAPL

| SMILES | Specific Act. (intracellular Ca ion level-increasing activity, specific activity to Metastin (1-54)) |
| --- | --- |
| CC(C)C[C@H](NC(=O)CNC(=O)[C@H](Cc1ccccc1)NC(=O)[C@H](CO)NC(=O)[C@H](CC(N)=O)NC(=O)[C@H](Cc1c[nH]c2ccccc12)NC(=O)OCC1c2ccccc2-c2ccccc21)C(=O)N[C@@H](CCCNC(=N)N)C(=O)N[C@@H](Cc1ccccc1)C(N)=O [Compound No. 54] (Fmoc-WNSFGLRF-NH2) | 5 |
| CC(C)C[C@H](NC(=O)CNC(=O)[C@H](Cc1ccccc1)NC(=O)[C@H](CO)NC(=O)[C@H](CC(N)=O)NC(=O)[C@H](Cc1cn(C=O)c2ccccc12)NC(=O)[C@H](CC(N)=O)NC(=O)[C@@H](N)Cc1ccc(O)cc1)C(=O)N[C@@H](CCCNC(=N)N)C(=O)N[C@@H](Cc1ccc(C#N)cc1)C(N)=O [Compound No. 78, Tyr-Asn-Trp(For)-Asn-Ser-Phe-Gly-Leu-Arg-Phe(4CN)-NH2] | 10 |
| CCCC[C@H](NC(=O)CNC(=O)[C@H](Cc1ccccc1)NC(=O)[C@H](CO)NC(=O)[C@H](CC(N)=O)NC(=O)[C@H](Cc1c[nH]c2ccccc12)NC(=O)[C@H](CC(N)=O)NC(=O)[C@@H](N)Cc1ccc(O)cc1)C(=O)N[C@@H](CCCNC(=N)N)C(=O)N[C@@H](Cc1ccccc1)C(N)=O [Compound No. 105, Tyr-Asn-Trp-Asn-Ser-Phe-Gly-Nle-Arg-Phe-NH2] | 1 |
| CC(C)C[C@H](NC(=O)CNC(=O)[C@H](Cc1ccccc1)NC(=O)[C@H](CO)NC(=O)[C@H](CC(N)=O)NC(=O)[C@H](Cc1c[nH]c2ccccc12)NC(=O)[C@H](CC(N)=O)NC(=O)[C@@H](N)Cc1ccc(O)cc1)C(=O)N[C@@H](CCCNC(=N)N)C(=O)N[C@@H](Cc1ccc2ccccc2c1)C(N)=O [Compound No. 110] (H-YNWNSFGLR[2Nal]-NH2) | 20 |
| CC(C)C[C@H](NC(=O)CNC(=O)[C@H](Cc1ccccc1)NC(=O)[C@H](CO)NC(=O)[C@H](CC(N)=O)NC(=O)[C@H](Cc1c[nH]c2ccccc12)NC(=O)[C@H](CC(N)=O)NC(=O)[C@@H](N)Cc1ccc(O)cc1)C(=O)N[C@@H](CCCNC(=N)N)C(=O)N[C@@H](Cc1c(F)c(F)c(F)c(F)c1F)C(N)=O [Compound No. 111] | 3 |
| CC(C)C[C@H](NC(=O)CNC(=O)[C@H](Cc1ccccc1)NC(=O)[C@H](CO)NC(=O)[C@H](CC(N)=O)NC(=O)[C@H](Cc1c[nH]c2ccccc12)NC(=O)[C@H](CC(N)=O)NC(=O)[C@@H](N)Cc1ccc(O)cc1)C(=O)N[C@@H](CCCNC(=N)N)C(=O)N[C@@H](CC1CCCCC1)C(N)=O [Compound No. 112] (H-YNWNSFGLR[Cha]-NH2) | 2 |
| CC(C)C[C@H](NC(=O)CNC(=O)[C@H](Cc1ccccc1)NC(=O)[C@H](CO)NC(=O)[C@H](CC(N)=O)NC(=O)[C@H](Cc1c[nH]c2ccccc12)NC(=O)[C@H](CC(N)=O)NC(=O)[C@@H](N)Cc1ccc(O)cc1)C(=O)N[C@@H](CCCNC(=N)N)C(=O)N[C@@H](Cc1ccc(Cl)cc1)C(N)=O [Compound No. 130] | 10 |
| CC(C)C[C@H](NC(=O)CNC(=O)[C@H](Cc1ccccc1)NC(=O)[C@H](CO)NC(=O)[C@H](CC(N)=O)NC(=O)[C@H](Cc1c[nH]c2ccccc12)NC(=O)[C@H](CC(N)=O)NC(=O)[C@@H](N)Cc1ccc(O)cc1)C(=O)N[C@@H](CCCNC(=N)N)C(=O)N[C@@H](Cc1ccc(N)cc1)C(N)=O [Compound No. 131] | 3 |
| CC(C)C[C@H](NC(=O)CNC(=O)[C@H](Cc1ccccc1)NC(=O)[C@H](CO)NC(=O)[C@H](CC(N)=O)NC(=O)[C@H](Cc1c[nH]c2ccccc12)NC(=O)[C@H](CC(N)=O)NC(=O)[C@@H](N)Cc1ccc(O)cc1)C(=O)N[C@@H](CCCNC(=N)N)C(=O)N[C@@H](Cc1ccc([N+](=O)[O-])cc1)C(N)=O [Compound No. 132] | 10 |
| CC(C)C[C@H](NC(=O)CNC(=O)[C@H](Cc1ccccc1)NC(=O)[C@H](CO)NC(=O)[C@H](CC(N)=O)NC(=O)[C@H](Cc1c[nH]c2ccccc12)NC(=O)[C@H](CC(N)=O)NC(=O)[C@@H](N)Cc1ccc(O)cc1)C(=O)N[C@@H](CCCNC(=N)N)C(=O)N[C@@H](Cc1cccc2ccccc12)C(N)=O [Compound No. 133] (H-YNWNSFGLR[1Nal]-NH2) | 3 |
| CNC(=N)NCCC[C@H](NC(=O)[C@H](CC(C)C)NC(=O)CNC(=O)[C@H](Cc1ccccc1)NC(=O)[C@H](CO)NC(=O)[C@H](CC(N)=O)NC(=O)[C@@H](Cc1c[nH]c2ccccc12)NC(=O)[C@H](CC(N)=O)NC(=O)[C@H](N)Cc1ccc(O)cc1)C(=O)N[C@@H](Cc1ccccc1)C(N)=O [Compound No. 142, D-Tyr-Asn-D-Trp-Asn-Ser-Phe-Gly-Leu-Arg(Me)-Phe-NH2] | 2 |
| CNC(=N)NCCC[C@H](NC(=O)[C@H](CC(C)C)NC(=O)CNC(=O)[C@H](Cc1ccccc1)NC(=O)[C@H](CO)NC(=O)[C@H](CC(N)=O)NC(=O)[C@@H](Cc1c[nH]c2ccccc12)NC(=O)[C@H](CC(N)=O)NC(=O)[C@@H](N)Cc1ccc(O)cc1)C(=O)N[C@@H](Cc1ccccc1)C(N)=O [Compound No. 143, Tyr-Asn-D-Trp-Asn-Ser-Phe-Gly-Leu-Arg(Me)-Phe-NH2] | 3 |
| CC(C)C[C@H](NC(=O)CNC(=O)[C@H](Cc1cccc2ccccc12)NC(=O)[C@H](CO)NC(=O)[C@H](CC(N)=O)NC(=O)[C@H](Cc1c[nH]c2ccccc12)NC(=O)[C@H](CC(N)=O)NC(=O)[C@@H](N)Cc1ccc(O)cc1)C(=O)N[C@@H](CCCNC(=N)N)C(=O)N[C@@H](Cc1ccccc1)C(N)=O [Compound No. 151, Tyr-Asn-Trp-Asn-Ser-Nal(1)-Gly-Leu-Arg-Phe-NH2] (H-YNWNS[1Nal]GLRF-NH2) | 1 |
| CC(C)C[C@H](NC(=O)CNC(=O)[C@H](Cc1ccc(F)cc1)NC(=O)[C@H](CO)NC(=O)[C@H](CC(N)=O)NC(=O)[C@H](Cc1c[nH]c2ccccc12)NC(=O)[C@H](CC(N)=O)NC(=O)[C@@H](N)Cc1ccc(O)cc1)C(=O)N[C@@H](CCCNC(=N)N)C(=O)N[C@@H](Cc1ccccc1)C(N)=O [Compound No. 154, Tyr-Asn-Trp-Asn-Ser-Phe(4F)-Gly-Leu-Arg-Phe-NH2] | 5 |
| CC(C)C[C@H](NC(=O)CNC[C@H](Cc1ccccc1)NC(=O)[C@H](CO)NC(=O)[C@H](CC(N)=O)NC(=O)[C@H](Cc1c[nH]c2ccccc12)NC(=O)[C@H](CC(N)=O)NC(=O)[C@@H](N)Cc1ccc(O)cc1)C(=O)N[C@@H](CCCNC(=N)N)C(=O)N[C@@H](Cc1ccccc1)C(N)=O [Compound No. 163, Tyr-Asn-Trp-Asn-Ser-PheΨ(CH2NH)Gly-Leu-Arg-Phe-NH2] | 1 |
| CC(C)C[C@H](NC(=O)CNC(=S)[C@H](Cc1ccccc1)NC(=O)[C@H](CO)NC(=O)[C@H](CC(N)=O)NC(=O)[C@H](Cc1c[nH]c2ccccc12)NC(=O)[C@H](CC(N)=O)NC(=O)[C@@H](N)Cc1ccc(O)cc1)C(=O)N[C@@H](CCCNC(=N)N)C(=O)N[C@@H](Cc1ccccc1)C(N)=O [Compound No. 166, Tyr-Asn-Trp-Asn-Ser-PheΨ(CSNH)Gly-Leu-Arg-Phe-NH2] (H-YNWNS[X3]LRF-NH2) | 5 |
| CNC(=N)NCCC[C@H](NC(=O)[C@H](CC(C)C)NC(=O)CNC(=O)[C@H](Cc1ccccc1)NC(=O)[C@H](CO)NC(=O)[C@H](CC(N)=O)NC(=O)[C@H](C)NC(=O)[C@H](CC(N)=O)NC(=O)[C@H](N)Cc1ccc(O)cc1)C(=O)N[C@@H](Cc1ccccc1)C(N)=O [Compound No. 169] (H-[dY]NANSFGL[Arg(Me)]F-NH2) | 2 |
| CNC(=N)NCCC[C@H](NC(=O)[C@H](CC(C)C)NC(=O)CNC(=O)[C@H](Cc1ccccc1)NC(=O)[C@H](CO)NC(=O)[C@H](CC(N)=O)NC(=O)[C@H](CO)NC(=O)[C@H](CC(N)=O)NC(=O)[C@H](N)Cc1ccc(O)cc1)C(=O)N[C@@H](Cc1ccccc1)C(N)=O [Compound No. 170] (H-[dY]NSNSFGL[Arg(Me)]F-NH2) | 1 |
| CNC(=N)NCCC[C@H](NC(=O)[C@H](CC(C)C)NC(=O)CNC(=O)[C@H](Cc1ccccc1)NC(=O)[C@H](CO)NC(=O)[C@H](CC(N)=O)NC(=O)[C@H](CC1CCCCC1)NC(=O)[C@H](CC(N)=O)NC(=O)[C@H](N)Cc1ccc(O)cc1)C(=O)N[C@@H](Cc1ccccc1)C(N)=O [Compound No. 171, D-Tyr-Asn-Cha-Asn-Ser-Phe-Gly-Leu-Arg(Me)-Phe-NH2] (H-[dY]N[Cha]NSFGL[Arg(Me)]F-NH2) | 10 |
| CNC(=N)NCCC[C@H](NC(=O)[C@H](CC(C)C)NC(=O)CNC(=O)[C@H](CC1CCCCC1)NC(=O)[C@H](CO)NC(=O)[C@H](CC(N)=O)NC(=O)[C@H](CC1CCCCC1)NC(=O)[C@H](CC(N)=O)NC(=O)[C@H](N)Cc1ccc(O)cc1)C(=O)N[C@@H](Cc1c[nH]c2ccccc12)C(N)=O [Compound No. 182, D-Tyr-Asn-Cha-Asn-Ser-Cha-Gly-Leu-Arg(Me)-Trp-NH2] (H-[dY]N[Cha]NS[Cha]GL[Arg(Me)]W-NH2) | 5 |
| CC(C)C[C@H](NC(=O)CNC(=O)[C@H](Cc1ccccc1)NC(=O)[C@H](CO)NC(=O)[C@H](CC(N)=O)NC(=O)[C@H](Cc1c[nH]c2ccccc12)NC(=O)[C@H](CC(N)=O)NC(=O)[C@@H](N)Cc1ccc(O)cc1)C(=O)N[C@@H](CCCNC(=N)N)C(=O)N[C@@H](Cc1csc2ccccc12)C(N)=O [Compound No. 189] (H-YNWNSFGLR[Bta]-NH2) | 10 |
| CNC(=N)NCCC[C@H](NC(=O)[C@H](CC(C)C)NC(=O)NNC(=O)[C@H](Cc1ccccc1)NC(=O)[C@H](CO)NC(=O)[C@H](CC(N)=O)NC(=O)[C@H](CC1CCCCC1)NC(=O)[C@H](CC(N)=O)NC(=O)[C@H](N)Cc1ccc(O)cc1)C(=O)N[C@@H](Cc1ccccc1)C(N)=O [Compound No. 190, D-Tyr-Asn-Cha-Asn-Ser-Phe-AzaGly-Leu-Arg(Me)-Phe-NH2] (H-[dY]N[Cha]NSF[azaGly]L[Arg(Me)]F-NH2) | 10 |

Reference: patent US8778871B2 (Takeda Pharmaceutical Company Limited, priority 2004, dated 2014)
